From ChEMBL document CHEMBL4265965, “Dichloroacetophenones targeting at pyruvate dehydrogenase kinase 1 with improved selectivity and antiproliferative activity: Synthesis and structure-activity relationships” (Bioorg Med Chem Lett, 2018)
Active and inactive are the calls of the source. The calls are words filed in the database; no cut-off is given here.

Columns and labels:
[1] = system: A549; assay: Antiproliferative activity against human A549 cells assessed as inhibition of cell proliferation at 12 uM after 72 hrs by MTT assay relative to control; format: functional; conditions: A549, 72 h
[2] = system: NCI-H1650; assay: Antiproliferative activity against human NCI-H1650 cells assessed as inhibition of cell proliferation at 12 uM after 72 hrs by MTT assay relative to control; format: functional; conditions: for inhibition at 12 µM: NCI-H1650, 72 h
[3] = system: NCI-H1975; assay: Antiproliferative activity against human NCI-H1975 cells assessed as inhibition of cell proliferation at 6 uM after 72 hrs by MTT assay relative to control; format: functional; conditions: NCI-H1975, 72 h
[4] = target: [Pyruvate dehydrogenase (acetyl-transferring)] kinase isozyme 1, mitochondrial (Homo sapiens, UniProt Q15118); assay: Inhibition of recombinant human N-terminal His6/Sumo-tagged PDK1 (29 to 436 residues) expressed in Escherichia coli BL21 at 1 uM by kinase-glo luminescence assay relative to control
[5] = system: NCI-H1975; assay: Antiproliferative activity against human NCI-H1975 cells assessed as inhibition of cell proliferation at 2 uM after 72 hrs by MTT assay relative to control; format: functional; conditions: for inhibition at 2 µM: NCI-H1975, 72 h
[6] = species on record: Sus scrofa; assay: Inhibition of porcine PDK1 assessed as activation of pyruvate dehydrogenase complex at 1 uM measured after 3 mins
[7] = system: NCI-H1975; assay: Antiproliferative activity against human NCI-H1975 cells assessed as inhibition of cell proliferation at 12 uM after 72 hrs by MTT assay relative to control; format: functional; conditions: NCI-H1975, 72 h
[8] = system: NCI-H1650; assay: Antiproliferative activity against human NCI-H1650 cells assessed as inhibition of cell proliferation at 2 uM after 72 hrs by MTT assay relative to control; format: functional; conditions: for inhibition at 2 µM: NCI-H1650, 72 h
[9] = system: NCI-H1650; assay: Antiproliferative activity against human NCI-H1650 cells assessed as inhibition of cell proliferation at 6 uM after 72 hrs by MTT assay relative to control; format: functional; conditions: for inhibition at 6 µM: NCI-H1650, 72 h
[10] = system: A549; assay: Antiproliferative activity against human A549 cells assessed as inhibition of cell proliferation at 2 uM after 72 hrs by MTT assay relative to control; format: functional; conditions: for inhibition at 2 µM: A549, 72 h
[11] = system: A549; assay: Antiproliferative activity against human A549 cells assessed as inhibition of cell proliferation at 6 uM after 72 hrs by MTT assay relative to control; format: functional; conditions: A549, 72 h

| SMILES | inhibition at 12 µM [1] | inhibition at 12 µM [2] | inhibition at 6 µM [3] | inhibition [4] | inhibition at 2 µM [5] | inhibition [6] | inhibition at 12 µM [7] | inhibition at 2 µM [8] | inhibition at 6 µM [9] | inhibition at 2 µM [10] | inhibition at 6 µM [11] | inhibition [8] | inhibition [10] | inhibition [2] | inhibition [9] | inhibition [5] |
| --- | --- | --- | --- | --- | --- | --- | --- | --- | --- | --- | --- | --- | --- | --- | --- | --- |
| O=C(c1ccccn1)C(Cl)Cl | 31.5% | 90.5% | 73.1% | inactive | 15.9% | 10.2% | 98.5% | 14.8% | 39.6% | 3.3% | 15.3% |  |  |  |  |  |
| O=C(c1ccccc1[N+](=O)[O-])C(Cl)Cl | 6.1% | 49.9% | 61.5% | inactive | 4.8% |  | 93.7% |  | 22.4% | 1.9% | 4.4% | inactive |  |  |  |  |
| CCOc1ccc(C(=O)C(Cl)Cl)cc1 | 80.9% | 90.2% | 89% | 19.7 to 67.9% | 22.6% |  | 98.6% | 22.3% | 50.4% | 18.9% | 31.6% |  |  |  |  |  |
| O=C(c1ccccc1I)C(Cl)Cl | 41.2% | 99.4% | 90.8% | inactive | 28.6% |  | 96.5% | 21% | 57.1% |  | 7.8% |  | inactive |  |  |  |
| Cc1ccccc1C(=O)C(Cl)Cl | 79.8% | 69.6% | 69.8% | inactive | 39.8% |  | 93% | 27.2% | 46.7% | 23.7% | 62.2% |  |  |  |  |  |
| Cc1ccc(C(=O)C(Cl)Cl)cc1[N+](=O)[O-] | 89.5% | 94.6% | 89.5% | 50.5% | 15.8% |  | 99.7% | 15.4% | 69.8% | 12.6% | 67.8% |  |  |  |  |  |
| O=C(c1ccccc1Cl)C(Cl)Cl | 27.9% | 42.9% | 39% | inactive | 12.6% |  | 71% | 10.3% | 19.7% |  | 4.6% |  | inactive |  |  |  |
| O=C(c1ccccc1F)C(Cl)Cl | 13.6% |  | 12.8% | inactive | 4.4% |  | 48.6% |  |  |  | 10.1% | inactive | inactive | inactive | inactive |  |
| COc1ccc(C(=O)C(Cl)Cl)cc1 | 86.1% | 84.9% | 95.8% | 19.7 to 67.9% | 35.1% |  | 98.3% | 32.5% | 56.8% | 7.5% | 50.1% |  |  |  |  |  |
| O=C(c1ccccc1C(F)(F)F)C(Cl)Cl | 8.3% | 16.7% | 2.1% | inactive |  |  | 10.2% | 8.1% | 12.7% | 3% | 9% |  |  |  |  | inactive |
| CCCCc1ccc(C(=O)C(Cl)Cl)cc1[N+](=O)[O-] | 56.9% | 97.5% | 65.2% | inactive | 39.8% |  | 100% | 22.3% | 57.2% |  | 12% |  | inactive |  |  |  |
| O=C(c1ccc(Cl)c([N+](=O)[O-])c1)C(Cl)Cl | 99.8% | 100% | 99.8% | 41.7% | 98.4% |  | 100% | 96.3% | 100% | 34.7% | 86.7% |  |  |  |  |  |
| CCCc1ccc(C(=O)C(Cl)Cl)cc1[N+](=O)[O-] | 65.2% | 99.8% | 69.5% | inactive | 31.5% |  | 99.8% | 29.8% | 60.2% |  | 8.9% |  | inactive |  |  |  |
| CCc1ccc(C(=O)C(Cl)Cl)cc1 | 92.8% | 99.3% | 97.6% | 44% | 55.4% |  | 96.5% | 30.7% | 79.1% | 31.5% | 81.4% |  |  |  |  |  |
| Cc1cc(C(=O)C(Cl)Cl)ccc1Cl | 81% | 98.8% | 97.8% | 10.2% | 46.7% |  | 99.2% | 38.8% | 79.7% | 13.2% | 51.7% |  |  |  |  |  |
| O=C(c1ccc(Cl)c(Cl)c1)C(Cl)Cl | 96.7% | 100% | 95.8% | inactive | 74.1% |  | 98.4% | 54% | 92.7% | 42.1% | 74.5% |  |  |  |  |  |
| Cc1ccc(C(=O)C(Cl)Cl)cc1 | 80% | 78.4% | 83.1% | 19.7% | 28.6% |  | 95.7% | 31.2% | 54.3% |  | 33.2% |  | inactive |  |  |  |
| O=C(c1ccccc1Br)C(Cl)Cl | 17.5% | 0.4% | 14.3% | inactive |  |  | 49.5% |  |  | 1.4% | 6.1% | inactive |  |  | inactive | inactive |
